From patent US9556158B2, “Fungicidal 3-[(pyridin-2-ylmethoxyimino)(phenyl)methyl]-2-substituted-1,2,4-oxadiazol-5(2H)-one derivatives” (BAYER INTELLECTUAL PROPERTY GMBH, priority 2011, dated 2017)

Tests used:
Plasmopara viticola = experiment: Example I: in vivo preventive test on Plasmopara viticola (grapevine); conditions: 144 h, 10 ppm of active ingredient, preventive spray on young plants, evaluated 6 days after inoculation, read-out: Eff. %
Method: In Vivo Preventive Test on Plasmopara viticola (Grapevine)
To produce a suitable preparation of active compound, 1 part by weight of active compound is mixed with the stated amounts of solvent and emulsifier, and the concentrate is diluted with water to the desired concentration.
To test for preventive activity, young plants are sprayed with the preparation of active compound at the stated rate of application. After the spray coating has dried on, the plants are inoculated with an aqueous spore suspension of Plasmopara viticola and then remain for 1 day in an incubation cabinet at approximately 20° C. and a relative atmospheric humidity of 100%. The plant is subsequently placed for 4 days in a greenhouse at approximately 21° C. and a relative atmospheric humidity of approximately 90%. The plants are then misted and placed for 1 day in an incubation cabinet.
The test is evaluated 6 days after the inoculation. 0% means an efficacy which corresponds to that of the untreated control, while an efficacy of 100% means that no disease is observed.

Phytophthora infestans [1] = type: in vivo; conditions: 100 ppm of active ingredient, preventive spray, inoculation one day after treatment, evaluated 7 days after inoculation
[2] = pH 2.7, LogP, HPLC on reversed phase columns, pH 2.7, 0.1% formic acid in water / acetonitrile gradient
Method: Measurement of log P values was performed according EEC directive 79/831 Annex V.A8 by HPLC (High Performance Liquid Chromatography) on reversed phase columns with the following method:
Measurement of LC-MS was done at pH 2.7 with 0.1% formic acid in water and with acetonitrile (contains 0.1% formic acid) as eluent with a linear gradient from 10% acetonitrile to 95% acetonitrile.
Calibration was done with not branched alkan2-ones (with 3 to 16 carbon atoms) with known log P-values (measurement of log P values using retention times with linear interpolation between successive alkanones). lambda-maX-values were determined using UV-spectra from 200 nm to 400 nm and the peak values of the chromatographic signals.

Pyricularia oryzae = experiment: whole plant or invertebrate; type: in vivo; conditions: 144 h, read-out: % efficacy
Puccinia recondita = experiment: Example E: in vivo preventive test on Puccinia recondita (brown rust on wheat); conditions: 500 ppm, preventive spray on wheat plants, contamination after 24 hours, grading 12 days after contamination vs control plants
Method: In Vivo Preventive Test on Puccinia recondita (Brown Rust on Wheat)
The active ingredients tested are prepared by homogenization in a mixture of acetone/tween/DMSO, and then diluted with water to obtain the desired active material concentration.
Wheat plants (“Scipion” variety), sown in starter cups on a 50/50 peat soil-pozzolana substrate and grown at 22° C., are treated at the 1-leaf stage (10 cm height) by spraying with the active ingredient prepared as described above. Plants, used as controls, are treated with the mixture of acetone/tween/DMSO/water not containing the active material.
After 24 hours, the plants are contaminated by spraying the leaves with an aqueous suspension of Puccinia recondita spores (100 000 spores per ml). The spores are collected from an infected plant and are suspended in water containing 2.5 ml/l of Tween 80 at 10%. The contaminated wheat plants are incubated for 24 hours at 20° C. and at 100% relative humidity, and then for 10 days at 20° C. and at 70-80% relative humidity.
Grading (% of efficacy) is carried out 12 days after the contamination, in comparison with the control plants.
(§1) Under these conditions, good (at least 70%) or total protection is observed at a dose of 500 ppm with the following compounds: […]

Phytophthora infestans [3] = experiment: whole plant or invertebrate; type: in vivo; conditions: in Solanum lycopersicum, 120 h, read-out: % efficacy
Botrytis cinerea = experiment: Example B: in vivo preventive test on Botrytis cinerea (grey mould); conditions: 500 ppm, preventive spray on gherkin plants, contamination after 24 hours, grading 4 to 5 days after contamination vs control plants
Method: In Vivo Preventive Test on Botrytis Cinerea (Grey Mould)
The active ingredients tested are prepared by homogenization in a mixture of acetone/tween/DMSO and then diluted with water to obtain the desired active material concentration.
Gherkin plants (“Vert petit de Paris” variety), sown in starter cups on a 50/50 peat soil-pozzolana substrate and grown at 24° C., are treated at the Z11 cotyledon stage by spraying with the active ingredient prepared as described above. Plants, used as controls, are treated with the mixture of acetone/tween/DMSO/water not containing the active material.
After 24 hours, the plants are contaminated by spraying the cotyledons with an aqueous suspension of cryopreserved Botrytis cinerea spores (50 000 spores per ml). The spores are suspended in a nutrient solution composed of 10 g/L of PDB, 50 g/L of D-Fructose, 2 g/L of NH4NO3 and 1 g/L of KH2PO4. The contaminated gherkin plants are incubated at 17° C. and at 90% relative humidity.
Grading (% of efficacy) is carried out 4 to 5 days after the contamination, in comparison with the control plants.
as §1

Compound | pest or weed control at 10 ppm (Plasmopara viticola) | Eff. % (Phytophthora infestans [1]) | chromatographic logP [2] | pest or weed control at 500 ppm (Pyricularia oryzae) | % efficacy (Puccinia recondita) | pest or weed control at 500 ppm (Phytophthora infestans [3]) | % efficacy (Botrytis cinerea)
C#CCCOC(=O)Nc1cccc(CO/N=C(/c2ccccc2)c2nc(=O)on2C)n1 [Example 1, but-3-yn-1-yl {6-[({[(Z)-(2-methyl-5-oxo-2,5-dihydro-1,2,4-oxadiazol-3-yl)(phenyl)methylene]amino}oxy)methyl]pyridin-2-yl}carbamate] | 99% | 98% | 2.71 |  |  |  | 
Cn1oc(=O)nc1/C(=N\OCc1cccc(NC(=O)OC(C)(C)C)n1)c1ccccc1 [Example 2, tert-butyl {6-[({[(Z)-(2-methyl-5-oxo-2,5-dihydro-1,2,4-oxadiazol-3-yl)(phenyl)methylene]amino}oxy)methyl]pyridin-2-yl}carbamate] | 100% | 100% | 3.31 |  |  |  | 
Cn1oc(=O)nc1/C(=N\OCc1cccc(NCCC2CCCCC2)n1)c1ccccc1 [Example 3, 3-[(Z)-[({6-[(2-cyclohexylethyl)amino]pyridin-2-yl}methoxy)imino](phenyl)methyl]-2-methyl-1,2,4-oxadiazol-5(2H)-one] | 93% |  | 2.43 |  |  |  | 
Cn1oc(=O)nc1C(=NOCc1cccc(NCC2CCCCC2)n1)c1ccccc1 [Example 4] | 94% | 95% | 2.44 |  |  |  | 
CCCCCCNc1cccc(CON=C(c2ccccc2)c2nc(=O)on2C)n1 [Example 5] | 96% | 95% | 2.2 |  |  |  | 
CCCCOCCNc1cccc(CON=C(c2ccccc2)c2nc(=O)on2C)n1 [Example 6] |  | 95% | 2.13 |  |  |  | 
Cn1oc(=O)nc1C(=NOCc1cccc(NCCc2ccccc2)n1)c1ccccc1 [Example 7] | 96% | 95% | 2.23 |  |  |  | 
Cn1oc(=O)nc1C(=NOCc1cccc(NC(=O)C(C)(C)C)n1)c1ccccc1 [Example 9] |  |  | 2.86 | 71% | 71% | 99% | 
Cn1oc(=O)nc1C(=NOCc1cccc(NC(=O)c2cccc(F)c2)n1)c1ccccc1 [Example 10] |  |  | 3.11 | 79% |  | 99% | 71%
CCCCCOC(=O)Nc1cccc(CON=C(c2ccccc2)c2nc(=O)on2C)n1 [Example 13] | 95% |  | 3.81 |  |  | 100% | 
CCCCOC(=O)Nc1cccc(CON=C(c2ccccc2)c2nc(=O)on2C)n1 [Example 14] | 94% |  | 3.39 |  |  | 100% | 
Cn1oc(=O)nc1/C(=N\OCc1cccc(NC(=O)OCCc2ccccc2)n1)c1ccccc1 [Example 15, 2-phenylethyl {6-[({[(Z)-(2-methyl-5-oxo-2,5-dihydro-1,2,4-oxadiazol-3-yl)(phenyl)methylene]amino}oxy)methyl]pyridin-2-yl}carbamate] | 94% |  | 3.57 |  |  | 99% | 
Cn1oc(=O)nc1C(=NOCc1cccc(NC(=O)OCc2ccccc2)n1)c1ccccc1 [Example 17] | 82% |  | 3.41 |  | 83% | 100% | 
CCCC(C)C(=O)Nc1cccc(CON=C(c2ccccc2)c2nc(=O)on2C)n1 (stereo not drawn) [Example 18] |  |  | 3.19 |  | 78% | 100% | 
CC(C)CC(=O)Nc1cccc(CON=C(c2ccccc2)c2nc(=O)on2C)n1 [Example 19] |  |  | 2.82 |  | 89% | 100% | 
Cn1oc(=O)nc1/C(=N\OCc1cccc(NC(=O)OC(C)(C)C)n1)c1cccc(F)c1 [Example 20, tert-butyl {6-[({[(Z)-(2-methyl-5-oxo-2,5-dihydro-1,2,4-oxadiazol-3-yl)(3-fluorophenyl)methylene]amino}oxy)methyl]pyridin-2-yl}carbamate] | 74% |  | 3.46 | 81% |  | 100% | 
COc1cccc(C(=NOCc2cccc(NC(=O)OC(C)(C)C)n2)c2nc(=O)on2C)c1 [Example 22] |  |  | 3.39 |  | 94% |  | 
C#CCC(C)(C)OC(=O)Nc1cccc(CO/N=C(/c2ccccc2)c2nc(=O)on2C)n1 [Example 35, 2-methylpent-4-yn-2-yl {6-[({[(Z)-(2-methyl-5-oxo-2,5-dihydro-1,2,4-oxadiazol-3-yl)(phenyl)methylene]amino}oxy)methyl]pyridin-2-yl}carbamate] | 100% |  | 3.31 |  |  | 100% | 90%
COc1cccc(C(=NOCc2cccc(NC(=O)C(C)Oc3ccccc3)n2)c2nc(=O)o[nH]2)c1 (stereo not drawn) [Example 44] |  |  | 3.39 | 83% |  | 100% | 
C#CCOC(=O)Nc1cccc(CON=C(c2cccc(F)c2)c2nc(=O)o[nH]2)n1 [Example 46] |  |  | 2.69 | 83% |  | 100% | 
O=C(CCc1ccccc1)Nc1cccc(CON=C(c2cccc(F)c2)c2nc(=O)o[nH]2)n1 [Example 47] |  |  | 3.29 | 75% |  | 100% | 
C#CCCOC(=O)Nc1cccc(CON=C(c2cccc(F)c2)c2nc(=O)o[nH]2)n1 [Example 49] |  |  | 2.8 | 83% |  | 93% | 
O=C(COc1ccccc1)Nc1cccc(CON=C(c2cccc(F)c2)c2nc(=O)o[nH]2)n1 [Example 51] |  |  | 3.21 | 83% |  | 100% | 
CC(C)CCOC(=O)Nc1cccc(CON=C(c2cccc(F)c2)c2nc(=O)o[nH]2)n1 [Example 52] |  |  | 3.83 | 75% |  | 100% | 
CCCCCC(=O)Nc1cccc(CON=C(c2cccc(OC)c2)c2nc(=O)o[nH]2)n1 [Example 53] |  |  | 3.31 | 75% |  | 95% | 
CCCCC(=O)Nc1cccc(CON=C(c2cccc(OC)c2)c2nc(=O)o[nH]2)n1 [Example 54] |  |  | 2.96 | 83% |  | 100% | 
Cc1cccc(C(=NOCc2cccc(NC(=O)COc3ccccc3)n2)c2nc(=O)on2C)c1 [Example 55] |  |  | 3.39 | 83% |  | 100% | 85%
